One substance from patent US20240082296A1, “TREATMENT OF MUSCLE ATROPHY USING DEXTRAN SULFATE” (TX MEDIC AB, priority 2020, published 2024) can be followed below.

Assay [1] concerns hepatocyte growth factor (HGF). Put plainly: circulating HGF after dextran sulfate injection in ALS patients (Example 2). The format is in vivo, human. The note with it: peak at 2.5 hours after injection; before 820±581; p<0.001. As for the experimental part: A clinical trial in the form of a Phase IIa, single-center, open label, single-arm study where the safety, tolerability and possible efficacy of subcutaneously administered dextran sulfate was evaluated in patients with ALS of intermediate progression rate. The clinical trial was conducted at the Sahlgrenska University Hospital, Gothenburg, Sweden and was overseen and approved by the Ethics Committee of the University of Gothenburg and by the Swedish Medical Products Agency.
Dextran sulfate (Tikomed AB, Viken, Sweden, WO 2016/076780) was administered at 1 mg/kg by […] subcutaneous injection once a week for five weeks to 13 human patients suffering from ALS.
Blood samples were drawn at defined study intervals by a venous catheter into vacutainer tubes. Laboratory analyses of blood plasma were performed immediately after collection by the Clinical Chemistry Laboratory at the Sahlgrenska University Hospital.
This indicates the potential for direct myogenic, as well as indirect neurotrophic, HGF-mediated effects on muscle atrophy after dextran sulfate administration.

The test system of assay [2] is human patients suffering from ALS. Put plainly: serum lactate in ALS patients before and after dextran sulfate (Example 1). The following applies: 2 mg/kg s.c. once a week; for serum lactate levels: week 0: 1.78±0.59. Type of assay: in vivo. The text has this: Using a longitudinal design, this study was aimed to determine the changes of selected serum metabolites in ALS patients before dextran sulfate administration and after different times following the beginning of the treatment. Changes in the measured metabolites indicated the biochemical response of the patient to dextran sulfate that is underpinning potential disease modification and the mechanisms of action of the drug in this ALS patient population.
(§1) Dextran sulfate (Tikomed AB, Viken, Sweden, WO 2016/076780) was administered at 2 mg/kg by […] subcutaneous injection once a week for ten weeks to 8 human patients suffering from ALS.
Peripheral venous blood samples were collected from patients before (week 0) and after dextran sulfate administration (week 5 and week 10) after at least 15 minutes of complete rest, using the standard tourniquet procedure, from the antecubital vein into a single VACUETTE® polypropylene tube containing serum separator and clot activator (Greiner-Bio One GmbH, Kremsmunster, Austria). After 30 mins at room temperature (20-25° C.), blood withdrawals were centrifuged at 1,890×g for 10 min to get serum aliquots.
A serum aliquot of 500 μl was supplemented with 1 ml of HPLC-grade acetonitrile, vortexed for 60 secs, centrifuged at the maximum speed in a top-bench centrifuge to precipitate proteins. Supernatants were washed with large volumes of HPLC-grade chloroform to remove organic solvent, centrifuged and the upper aqueous phases were transferred to different tubes, clearly labeled to identify the sample and stored at −80° C. until analyzed to determine different water-soluble compounds.

The subject of a further assay is ALS patients. Briefly: serum metabolites by HPLC pre- and post-treatment in ALS patients (Example 3). Type of assay: in vivo, human. The text has this: The objective of this Example was to evaluate the effect of repeated dextran sulfate administration on the concentrations of serum metabolites in serum samples from a cohort of Swedish ALS patients who had participated in the trial entitled ‘A single-centre, open single-arm study where the safety, tolerability and efficacy of subcutaneously administered ILB® will be evaluated in patients with Amyotrophic Lateral Sclerosis’. Using a longitudinal design, this study aimed to determine the changes of selected serum metabolites in each ALS patient before and after weekly dextran sulfate treatment. Changes in the measured metabolites indicate the biochemical response of the patient to dextran sulfate that is underpinning potential disease modification and the mechanisms of action of the drug in this patient population.
After an initial screening visit, patients had five weekly dosing of a single dextran sulfate (ILB®, Tikomed AB, Viken, Sweden, WO 2016/076780) injection of 1.0 mg/kg body weight in saline into the subcutaneous fat of the lower abdomen.
Peripheral venous blood samples were been collected from the patients after at least 15 minutes of complete rest, using the standard tourniquet procedure, from the antecubital vein into a single VACUETTE® polypropylene tube containing serum separator and clot activator (Greiner-Bio One GmbH, Kremsmunster, Austria). After 30 minutes at room temperature, blood withdrawals were centrifuged at 1,890×g for 10 min and the resulting serum samples were stored at −20° C. until analysis.
After defrost, an aliquot of 500 μl of each serum sample was supplemented with 1 ml of HPLC-grade acetonitrile, vortexed for 60 seconds, centrifuged at the maximum speed in a top-bench centrifuge to precipitate proteins. Supernatants were washed with large volumes of HPLC-grade chloroform to remove organic solvent, centrifuged and the upper aqueous phases were transferred in different tubes, clearly labeled to identify the sample and stored at −80° C. until analyzed to determine different water-soluble compounds.
A second aliquot of about 300 μl of each serum sample was light-protected and then processed to extract fat-soluble antioxidants using a method described in detail elsewhere (Lazzarino et al., Single-step preparation of selected biological fluids for the high performance liquid chromatographic analysis of fat-soluble vitamins and antioxidants. J Chromatogr A. 2017; 1527: 43-52.). Briefly, samples were supplemented with 1 ml of HPLC-grade acetonitrile, vigorously vortexed for 60 s and incubated at 37° C. for 1 h in a water bath under agitation, to allow the full extraction of lipid soluble compounds. Samples were then centrifuged at 20,690×g for 15 min at 4 C to precipitate proteins and the clear supernatants were saved at −80° C. until the HPLC analysis of fat-soluble vitamins and antioxidants.
In deproteinized serum samples, the following water-soluble compounds were separated and quantified by HPLC, according to methods described elsewhere (Tavazzi et al., Simultaneous high performance liquid chromatographic separation of purines, pyrimidines, N-acetylated amino acids, and dicarboxylic acids for the chemical diagnosis of inborn errors of metabolism. Clin Biochem. 2005; 38: 997-1008; Romitelli et al., Comparison of nitrite/nitrate concentration in human plasma and serum samples measured by the enzymatic batch Griess assay, ion-pairing HPLC and ion-trap GC-MS: The importance of a correct removal of proteins in the Griess assay. J Chromatogr B Analyt Technol Biomed Life Sci. 2007; 851: 257-267; Amorini et al., Metabolic profile of amniotic fluid as a biochemical tool to screen for inborn errors of metabolism and fetal anomalies. Mol Cell Biochem. 2012; 359: 205-216): hypoxhantine, xanthine, uric acid, malondialdehyde (MDA), nitrite, nitrate, N-acetylaspartate (NAA), citrulline (CITR), alanine (ALA), and ornithine (ORN). […]

For assay [3], the system named is human patients suffering from ALS. Put plainly: ALSAQ-40 ADL and PM sub-scores in ALS patients (Example 1). The format is in vivo. On the procedure: as §1
ALSAQ-40 was assessed pre-treatment and weekly thereafter for the 10 treatment weeks and for the visits at the follow-up period.
The ALSAQ-40 sub-scores entitled ‘Activities of Daily Living/Independence’ (ADL) and ‘Physical Mobility’ (PM) reflect the patients' view of their level of physical activity and independence. A falling score reflects improved physical activity.

[4] abbreviates: post- vs pre-treatment, five weekly 1.0 mg/kg s.c.

The substance dextran sulfate returned a circulating HGF, peak in assay [1] of 37.9 ± 14.2 ng/mL. Further, the “increase of serum lactate levels” value in assay [2] (after 5 weeks vs week 0) is given as 29.8%. Further, the serum lactate levels in assay [2] (after 5 weeks, p<0.01) amounted to 2.31 ± 1.02 mM. In assay [2] (after 10 weeks vs week 0), the “increase of serum lactate levels” value was determined as 70%. The substance further returned a serum lactate levels in assay [2] (after 10 weeks) of 3.02 ± 1.59 mM. Also, in the assay on ALS patients (setting [4]), the “serum CITR” value was “ameliorated”, the “serum MDA” value is “decreased”, the “serum NAA” value is “Significantly lower” and the “serum ORN/CITR ratio” value is recorded as “ameliorated”. Moreover, in the assay with ALS patients (setting [4]), the serum nitrate entry was “decreased”, the “serum nitrite+nitrate” value was “decreased”, the “serum sum of oxypurines (hypoxanthine+xanthine+uric acid)” value is given as “decreased” and the serum uric acid result is reported as “decreased”. In the assay on ALS patients (setting [4]), the “serum α-tocopherol” value is listed as “ameliorated” and the “serum γ-tocopherol” value is reported as “ameliorated”. For the same substance, the “circulating values of ALA” value with ALS patients (post-treatment, equal to controls, significantly lower than pre-treatment) is listed as “normalized”. In assay [3] (after 10 weeks of treatment), the “decline of ALSAQ-40 ADL sub-score” value was determined as 18.6% and the “decline of ALSAQ-40 PM sub-score” value was 16%. Also, the “ALSAQ-40 PM sub-score” value in assay [3] (after 10 weeks, pre-treatment 27.2±22.2) amounted to 22.7±20.2. For the same substance, in assay [3] (after 10 weeks, pre-treatment 58.9±21.4, p<0.05, falling score = improved), the “ALSAQ-40 ADL sub-score” value is 44.4±24.7.
